Measured values: patent US12280029B2, “Methods of treatment of inflammation related conditions using pluripotent anti-inflammatory and metabolic modulators” (INSTITUT PASTEUR DE MONTEVIDEO, priority 2016, dated 2025)

Tests used:
[1] = Adduct formation of SANA with β-mercaptoethanol, followed spectrophotometrically (UV-visible); assay type: physicochemical; conditions: pH 7.4, BME 1 mM, scans every min up to 15 min
Experimental: (§1) UV-visible spectra was acquired by a Varian Cary 50 Bio. Scans were taken every min up to 15 min.

[2] = Adduct formation of SANA with glutathione, followed spectrophotometrically (UV-visible); assay type: physicochemical; conditions: pH 7.4, GSH 1 mM, scans every min up to 15 min
Experimental: as §1

[3] = Stopped-flow kinetic measurement of the reaction with BME; assay type: physicochemical; conditions: 25 μM, BME 0.54-2.73 mM, absorbance at 260 nm, 25° C., triplicate, slope of pseudo first order constants vs BME
Experimental: In FIG. 2, it is shown that the reaction between SANA and BME was determined to be a second order rate constant. Stopped-flow kinetic measurements were performed using an Rx 2000 stopped flow analyzer (Applied Photophysics). Mixtures of 1.50 μL […] (25 μM) and solutions of BME at 0.54 mM, 1.09 mM, 1.64 mM, 2.18 mM, and 2.73 mM concentrations.
The reaction was monitored by following the absorbance at 260 nm and plots were fitted to a simple exponential decay function using Originlab software (version 8.0.). The observed pseudo first order constant at each concentration of BME was extracted from the equation and plotted against the concentration of BME. The second rate constant of the reaction is derived from the slope of the curve and was 182±6 M^−1s^−1. All experiments were carried out at 25° C. by triplicate.

[4] = tested on: NF-κB/p65 in THP-1 macrophages; experiment: LPS-induced NF-κB/p65 subcellular localization, immunofluorescence and epifluorescence microscopy; assay type: cell-based, human
Text: Nuclear factor kappa B (NF-κB) represents a family of pro-inflammatory transcription factors, present in all eukaryotic cells, which regulate inducible expression of wide ranging genes involved in immune responses and cell-cycle regulation. Activation of NF-κB is accompanied by nuclear translocation of NF-κB. […] Specifically, FIG. 3 illustrates immunofluorescence and epifluorescence microscopy analysis showing the effect of SANA on LPS-induced NF-κB/p65 subcellular localization in THP-1 macrophages.

[5] = tested on: NF-kB-dependent gene expression in THP-1 cells differentiated into macrophages; experiment: NF-kB-dependent gene expression in human macrophages (qPCR); assay type: cell-based; conditions: 100 and 200 uM for 2 hours, then LPS (3 hours)
Experimental: THP-1 cells were differentiated into macrophages. Cells were then treated with SANA (100 and 200 uM) or Salicylic acid (SA: 100 and 200 uM) for 2 hours. Cells were then stimulated with LPS (1 mg/mL, 3 hours) mRNA was extracted and IL-6, TNF-a and MCP-1 fold change gene expression over control were quantified by qPCR.

[6] = tested on: Nrf2/Keap1-dependent gene expression in Hep G2 cells; experiment: Phase two enzymes Nrf2/Keap1-dependent gene expression (qPCR); assay type: cell-based; conditions: Hep G2, five hours, SANA 0.1 mM, Salicylic Acid 0.2. and 5 mM
Experimental: FIGS. 6 and 7 show induction of phase two enzymes Nrf2/Keap1-dependent gene expression by SANA but not by SA. Hep G2 cells were treated with SANA (0.1 mM) or Salicylic Acid (0.2. and 5 mM) for five hours. mRNA was extracted from the cells and was measured HO-1, GCLM and NQO1 gene expression by qPCR.

[7] = tested on: inflammasome in THP-1 cells differentiated into macrophages; experiment: Inflammasome inhibition in THP-1 macrophages (LPS + ATP, IL-1b ELISA); assay type: cell-based, human; conditions: for inhibition of the inflammasome (IL-1b secretion), applied with the second signal: LPS (250 ng/mL, 3 hs.), then together with ATP (5 mM, 45 minutes), SANA 0.05, 0.125 and 0.25 mM, Salicylic acid 0.25 mM; for inhibition of the inflammasome (IL-1b secretion), applied with the first signal: together with LPS (250 ng/mL, 3 hs.), then ATP (5 mM, 45 minutes), SANA 0.05, 0.125 and 0.25, Salicylic acid 0.2.5 mM
Experimental: In FIGS. 8 and 9 show the inhibition of inflammasome in THP-1 cells differentiated into macrophages (PMA 200 nM, 48 hs.) by SAMA but not by SA when applied together with the first (FIG. 8) or the second (FIG. 9) signal. In FIG. 8 cells were treated with Salicylic acid (0.2.5 mM) or SANA (0.05; 0.125 and 0.25) together with LPS stimulation. The cells were stimulated with LPS (250 ng/mL, 3 hs.) and then with ATP (5 mM, 45 minutes). Supernatant was collected and IL-1b measured by ELISA. Cell viability was assessed by MTT assay. […] In FIG. 9 THP-1 cells were differentiated into macrophages with PMA (200 nM, 48 hs.). Cells were stimulated with LPS (250 ng/mL, 3 hs.) and then with ATP (5 mM, 45 minutes), Together with ATP treatment, cells were then treated with […] (10 uM), Salicylic acid (0.25 mM) or SANA (0.05; 0.125 and 0.25 mM). Supernatant was collected and IL-1b secretion was measured by ELISA. Cell viability was assessed by the MTT assay.

[8] = tested on: Il-1b secretion into the peritoneum; experiment: LPS-induced Il-1b secretion into the peritoneum in vivo
HFD-induced obese mice = experiment: Insulin resistance in HFD-induced obese mice (glucose tolerance test); assay type: in vivo; conditions: 100 mg/kg gavage every day during four weeks
Experimental: Mice under RFD for up to 7 months (mean weight around 40 gr.) were treated with SANA (100 mg/kg; gavage) or phosphate buffer (control) every day during four weeks. The glucose tolerance test were run as per well-known standard procedures.

GAPDH = GAPDH (Homo sapiens, UniProt P04406); experiment: GAPDH activity; assay type: biochemical
[9] = tested on: skin allograft, C57BL/6 female mice grafted with skin of C57BL/6 male mice; experiment: Skin allograft rejection in mice; assay type: in vivo; conditions: from one day before until 15 days after transplantation
Experimental: C57BL/6 female mice were grafted with skin from the tails of C57BL/6 male mice. The skin graft is a small square (1 cm^2) and it was implanted onto the left subscapular region of the female mice. From one day before the transplantation until 15 days after it, the mice were treated daily with SANA. (1.00 mg/kg, by oral gavage; SANA group) or vehicle (Control group). The vehicle used was a solution of Carboxy-Methyl-cellulose 0.5% m/v and Tween 80 0.5% v/v. At the end of the 15th day of administration, allografts were checked every 48/72 hours to assess the condition of the grafted skin. Rejection was diagnosed clinically when the allograft lost more than 50% of its size and/or more than 10% of allograft was necrotic. […] The study followed the protocol described above for FIG. 1, but further included a Salicylate group. C57BL/6 female mice were grafted with skin from the tails of C57BL/6 male mice. The skin graft is a small square (1 cm^2) and it was implanted onto the left subscapular region of the female mice. From one day before the transplantation until 15 days after it, the mice were treated daily with Salicylate (100 mg/kg, by oral gavage; Salicylate group), SANA (100 mg/kg, by oral gavage; SANA group) or vehicle (Control group). The vehicle used was a solution of Carboxy-Methyl-cellulose 0.5% m/v and Tween 80 0.5% v/v. […]

Sequence of GAPDH (P04406 whole entry, species assumed): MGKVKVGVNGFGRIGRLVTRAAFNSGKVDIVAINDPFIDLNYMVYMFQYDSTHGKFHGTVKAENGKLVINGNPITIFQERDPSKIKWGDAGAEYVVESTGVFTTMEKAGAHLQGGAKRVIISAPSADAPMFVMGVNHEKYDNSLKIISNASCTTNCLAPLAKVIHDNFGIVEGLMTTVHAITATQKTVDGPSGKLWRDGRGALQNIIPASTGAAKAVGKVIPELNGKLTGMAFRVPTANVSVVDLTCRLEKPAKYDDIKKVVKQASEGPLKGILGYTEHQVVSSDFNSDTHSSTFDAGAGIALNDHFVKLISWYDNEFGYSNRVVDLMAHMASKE

Row | SMILES | adduct formation with BME (increase of absorption at 360 nm) [1] | adduct formation with GSH (increase of absorption at 360 nm) [2] | second rate constant of the reaction with BME [3] | LPS-induced NF-κB/p65 nuclear translocation ([4]; 0.1 mM, 2 hs before activation with LPS (1 ug/mL)) | potency relative to salicylic acid on NF-κB/p65 localization ([4]; SANA 0.1 mM vs salicylic acid 1 mM) | inhibition of NF-kB-dependent gene expression (IL-6, TNF-a and MCP-1 mRNA fold change over control) [5] | induction of Nrf2/Keap1-dependent gene expression (HO-1, GCLM and NQO1) [6] | inhibition of the inflammasome (IL-1b secretion), applied with the second signal [7] | inhibition of the inflammasome (IL-1b secretion), applied with the first signal [7] | LPS-induced Il-1b secretion into the peritoneum [8] | insulin resistance (glucose tolerance test) (HFD-induced obese mice) | inhibition of GAPDH activity (GAPDH) | survival of grafted skin vs control group ([9]; 1.00 mg/kg by oral gavage daily) | skin allograft rejection vs salicylic acid ([9]; 100 mg/kg by oral gavage daily, Salicylate 100 mg/kg) | LPS-induced NF-κB/p65 subcellular localization, effect compared with SANA 0.1 mM ([4]; 1 mM, LPS (1 ug/mL))
1 | O=C(O)c1cc(/C=C/[N+](=O)[O-])ccc1O [SANA, 2-hydroxy-5-(2-nitroethenyl)benzoic acid] | adduct formation | adduct formation | 182 ± 6 M⁻¹ s⁻¹ | lack of nuclear translocation of NF-κB | significantly more potent than salicylic acid | inhibition of NF-kB-dependent gene expression | induction | potent inhibitor of the inflammasome | potent inhibitor of the inflammasome | decreases | reverses insulin resistance | does not inhibit GAPDH activity | prolonged survival of grafted skin as compared to a control group | significant reduction in skin allograft rejection compared to salicylic acid | 
2 | O=C(O)c1ccccc1O [salicylic acid, reference compound] |  |  |  |  |  | not able to inhibit NF-kB dependent gene expression | not by SA | cannot inhibit | cannot inhibit |  |  |  |  |  | the same effect
